According to patent US20240360179A1, “STAPLED PEPTIDES AND METHODS THEREOF” (FOG PHARMACEUTICALS, INC., priority 2021, published 2024):

Legend:
[1] = target: T1, biotinylated B-Catenin residues 134-665 (Uniprot ID P35222) (Homo sapiens, UniProt P35222); experiment: Surface plasmon resonance (Biacore) binding to beta-catenin; conditions: read-out: SPR Kd
T1 construct: biotinylated B-Catenin residues 134-665 (Uniprot ID P35222)
T1 sequence (P35222 134-665): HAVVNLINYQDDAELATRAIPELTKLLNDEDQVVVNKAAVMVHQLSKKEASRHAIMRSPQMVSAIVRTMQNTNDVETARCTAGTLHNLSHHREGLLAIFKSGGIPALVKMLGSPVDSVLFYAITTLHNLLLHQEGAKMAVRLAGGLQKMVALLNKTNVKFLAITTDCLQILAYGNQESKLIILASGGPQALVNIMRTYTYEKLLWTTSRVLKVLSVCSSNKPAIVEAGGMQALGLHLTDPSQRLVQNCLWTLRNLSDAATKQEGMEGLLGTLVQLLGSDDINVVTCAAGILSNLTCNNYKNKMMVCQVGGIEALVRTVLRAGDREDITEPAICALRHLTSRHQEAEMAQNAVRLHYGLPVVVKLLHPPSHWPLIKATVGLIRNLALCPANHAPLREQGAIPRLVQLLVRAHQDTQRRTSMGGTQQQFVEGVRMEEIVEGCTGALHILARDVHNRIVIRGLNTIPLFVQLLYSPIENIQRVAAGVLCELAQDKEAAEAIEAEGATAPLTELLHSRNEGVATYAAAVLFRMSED
Protocol: In some embodiments, binding to beta-catenin may be measured by surface plasmon resonance (SPR).
Peptides at 10 mM concentration in DMSO are diluted into Biacore™ running buffer (50 mM Tris pH 8.0, 300 mM NaCl, 2% glycerol, 0.5 mM TCEP, 0.5 mM EDTA, 0.005% Tween-20, 0.09% DMSO) to afford an appropriate dilution range. […] Results were analyzed using the Biacore™ Insight Evaluation Software, fitting to a 1:1 binding model.
SPR. In some embodiments, SPR may be utilized for characterizing or assessing interactions, bindings, etc. The following protocol is described as an example. In some embodiments, SPR experiments were performed on a Biacore™ 8K (Cytiva, Marlborough, MA) instrument at 25° C. Compounds were diluted into running buffer (50 mM Tris pH 8.0, 300 mM NaCl, 2% glycerol, 0.5 mM TCEP, 0.5 mM EDTA, 0.005% Tween-20, 1% DMSO). […] Results were analyzed using the Biacore™ Insight Evaluation software, with double referencing and fitted to a 1:1 binding affinity model.

[2] = target: T2, TCF/LEF luciferase reporter in DLD1 cells (Homo sapiens, UniProt P35222); experiment: TCF reporter assay in DLD1 cells (4% or 20% FBS); type: cell-based; conditions: DLD1 reporter cells; read-out: TCF reporter IC50
T2 sequence (P35222 2-781): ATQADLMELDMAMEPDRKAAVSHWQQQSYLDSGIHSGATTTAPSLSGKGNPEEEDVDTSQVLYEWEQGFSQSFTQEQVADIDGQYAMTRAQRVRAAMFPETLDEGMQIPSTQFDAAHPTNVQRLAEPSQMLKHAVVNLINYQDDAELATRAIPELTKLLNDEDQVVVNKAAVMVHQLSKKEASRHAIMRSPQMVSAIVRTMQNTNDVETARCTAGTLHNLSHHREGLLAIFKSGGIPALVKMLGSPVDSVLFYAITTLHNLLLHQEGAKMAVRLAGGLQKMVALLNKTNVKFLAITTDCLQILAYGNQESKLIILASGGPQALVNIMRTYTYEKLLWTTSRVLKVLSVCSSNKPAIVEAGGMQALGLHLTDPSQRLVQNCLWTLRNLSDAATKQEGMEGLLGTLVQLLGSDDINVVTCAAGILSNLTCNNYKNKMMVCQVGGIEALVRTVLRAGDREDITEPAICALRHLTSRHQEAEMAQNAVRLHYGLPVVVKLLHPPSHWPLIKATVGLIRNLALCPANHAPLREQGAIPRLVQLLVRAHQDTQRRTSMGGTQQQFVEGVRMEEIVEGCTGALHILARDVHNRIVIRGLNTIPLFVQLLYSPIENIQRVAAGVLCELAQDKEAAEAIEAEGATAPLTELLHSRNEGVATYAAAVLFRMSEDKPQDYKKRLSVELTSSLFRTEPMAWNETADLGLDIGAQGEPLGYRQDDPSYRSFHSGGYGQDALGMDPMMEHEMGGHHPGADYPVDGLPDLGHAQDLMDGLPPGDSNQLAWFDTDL

[3] = system: beta-catenin driven transcription in HAP1 WT cells; experiment: qPCR of beta-catenin driven transcription in HAP1 WT cells (CHIR treated); type: cell-based; conditions: CHIR treated

Substance: Ac-PL3-Glu-Npg-B5-Glu-3COOHF-Aib-Ala-Phe-Lys*3-PyrS2-3Thi-BztA-GlnR*3-Ala-NH2 [I-470]
- Kd [1]: > 5 µM
- IC50 [2]: > 20 µM
- expression of AXIN2 and SP5 by qPCR (transcription) [3]: No reduction
